# Data from ChEMBL document CHEMBL3301361, “Experimental in vitro DMPK and physicochemical data on a set of publicly disclosed compounds”.
# Test: physchem
# Settings: pH 7.4 buffer
row,Structure (SMILES),solubility thermodynamic
1,CC(C)(C)Cn1c2ccccc2c2cc(NC(=O)N3CCOCC3)ccc21,0.1 µM
2,Nc1nc2cc(Cl)ccc2n1CCCO,1320 µM
3,O=C(O)c1cc2ccccc2n1Cc1cccc(Cl)c1,1200 µM
4,O=C(O)c1cc2c(F)cccc2n1Cc1ccc(Cl)c(Cl)c1,525 µM
5,O=C(O)c1c(Cl)c2ccccc2n1Cc1ccc(Cl)c(Cl)c1,759 µM
6,CS(=O)(=O)c1ccc2c(c1)cc(C(=O)O)n2Cc1ccc(Cl)c(Cl)c1,1100 µM
7,O=C(c1ccc(F)cc1)C1CCN(C(=O)N2CCOCC2)CC1,1150 µM
8,COc1ccc(NC(=O)c2ccccn2)cc1,676 µM
9,c1ccc(-c2cn3cccnc3n2)cc1,676 µM
10,CNC(=O)[C@@H](NC(=O)[C@H](CC(C)C)[C@H](OCc1cccc2cccnc12)C(=O)NO)C(C)(C)C,1000 µM
11,Nc1cccc(S(=O)(=O)Nc2ccccc2)c1,1020 µM
12,Nc1nnc(Cc2ccccc2)s1,1200 µM
13,CNC(=O)[C@@H](NC(=O)[C@H](CC(C)C)[C@H](Sc1ccc(OC)c(OC)c1)C(=O)NO)C(C)(C)C,1290 µM
14,Cc1ccc2c(c1)-c1ccccc1S(=O)(=O)N2,631 µM
15,COCCOc1cc2nncc(Nc3cc(O)c(Cl)cc3F)c2cc1OC,0.1 µM
16,Nc1n[nH]c(S(=O)(=O)CCCc2ccccc2)n1,575 µM
17,Clc1ccc(-c2nnc(CNC3CC3)o2)cc1,1230 µM
18,Cn1cc(C(=O)CCCCOc2ccc(C(=O)O)cc2)cc1C=O,1200 µM
19,O=S(=O)(Nc1ccncc1)c1ccccc1,794 µM
20,C#CCN(Cc1ccc2nc(CO)[nH]c(=O)c2c1)c1ccc(C(=O)NCc2cccc([N+](=O)[O-])c2)cc1,0.4 µM
21,Cn1[nH]c(CSc2ccc(Cl)cc2)cc1=O,468 µM
22,O=c1cc(-c2cccnc2)[nH]c2ccccc12,1350 µM
23,CNC(=O)Cc1ccc2c(=O)cc(-c3cccnc3)[nH]c2c1,457 µM
24,O=C(Nc1ccccc1)Nc1ccncc1,1350 µM
25,O=[N+]([O-])c1ccc(CCl)cc1,501 µM

row,Structure (SMILES),solubility thermodynamic
1,COC[C@H](C)Oc1cc(O[C@@H](C)Cc2ccc(F)cc2)cc(C(=O)Nc2ccc(C(=O)O)cn2)c1,1260 µM
2,COC[C@H](C)Oc1cc(O[C@@H](C)Cc2ccccc2OC)cc(C(=O)Nc2ccc(C(=O)O)cn2)c1,589 µM
3,COC[C@H](C)Oc1cc(O[C@@H](C)Cc2cc(F)cc(F)c2)cc(C(=O)Nc2ccc(C(=O)O)cn2)c1,646 µM
4,COC[C@H](C)Oc1cc(Oc2ccc(OC)cc2)cc(C(=O)Nc2ccc(C(=O)O)cn2)c1,1510 µM
5,COC[C@H](C)Oc1cc(Oc2cccc(Cl)c2)cc(C(=O)Nc2ccc(C(=O)O)cn2)c1,1170 µM
6,COC[C@H](C)Oc1cc(Oc2cccc(F)c2)cc(C(=O)Nc2ccc(C(=O)O)cn2)c1,1380 µM
7,COC[C@H](C)Oc1cc(Oc2cccc(N(C)C)c2)cc(C(=O)Nc2ccc(C(=O)O)cn2)c1,1350 µM
8,Cc1noc(C)c1CCC1CCN(S(=O)(=O)CC2(N(O)C=O)CCOC(C)(C)C2)CC1 (stereo not drawn),851 µM
9,Cc1cc(O)nc(SCC(=O)c2ccccc2)n1,708 µM
10,O=C(Nc1cccc(O)c1)c1ccc(OCCCN2CCCC2)cc1OCc1ccccn1,513 µM
11,CNC(=O)CCc1nc(-c2ccc(OC)cc2)no1,912 µM
12,Cc1[nH]c2ccccc2c1CC#N,1020 µM
13,CC(C)Oc1cc(OCCc2ccncc2)cc(C(=O)Nc2ccc(C(=O)O)cn2)c1,1070 µM
14,CC(=O)N1CCC(NC(=O)c2ccc(Oc3ccc(C#C[C@]4(O)CN5CCC4CC5)cc3)cc2)CC1,646 µM
15,CCN(C(=O)Cc1ccc(S(C)(=O)=O)cc1)C1CCN(CCC(c2ccccc2)N2CCN(c3ccccc3)CC2)CC1 (stereo not drawn),692 µM
16,CCN(C(=O)Cc1ccc(S(C)(=O)=O)cc1)C1CCN(CC[C@@H](c2ccccc2)N2CCN(S(=O)(=O)CC(F)(F)F)CC2)CC1,490 µM
17,CCN(C(=O)Cc1ccc(S(C)(=O)=O)cc1)C1CCN(CCC(c2ccccc2)C2CCN(C(C)=O)CC2)CC1 (stereo not drawn),1510 µM
18,CCN(C(=O)Cc1ccc(S(C)(=O)=O)cc1)C1CCN(CCC(c2ccccc2)C2CCN(S(=O)(=O)CC)CC2)CC1 (stereo not drawn),457 µM
19,CC(c1ccccc1)n1cnc2ccccc2c1=O (stereo not drawn),468 µM
20,CNc1cccc(CCOc2ccc(C[C@H](NC(=O)c3c(Cl)cncc3Cl)C(=O)O)cc2)n1,1350 µM
21,Cc1ccc(NC(=O)c2ccnc(N3CCOCC3)c2)cc1-n1c(C)nc2ccc(N3CCN(C)CC3)cc2c1=O,851 µM
22,CCN1CCC[C@@H](C(=O)N2CCN(C(=O)Nc3ccc(Cl)c(Cl)c3)CC2)C1,1050 µM
23,COc1cc(OC2CCOCC2)c2c(Nc3ccc(F)c(Cl)c3)ncnc2c1,0.1 µM
24,Cc1sc(N2CCN(C(=O)[C@@H]3CCCC[C@H]3C(=O)NC3(C#N)CC3)CC2)nc1C(F)(F)F,1070 µM
25,CNC(=O)[C@@H](C)N(C)Cc1cc2c(Nc3cccc(Cl)c3F)ncnc2cc1OC,646 µM

row,Structure (SMILES),solubility thermodynamic
1,COc1ccc(Cn2c(CCc3c[nH]c4ccccc34)nnc2[C@@H](Cc2c[nH]c3ccccc23)NC(=O)C2CCNCC2)c(OC)c1,550 µM
2,COc1cc2c(Nc3cc(CC(=O)Nc4cccc(F)c4F)[nH]n3)ncnc2cc1OCCCN1CCC[C@H]1CO,1000 µM
3,CS(=O)(=O)c1ccc2c3c([nH]c2c1)CCN(C(=O)[C@@H]1CCCC[C@H]1C(=O)NC1(C#N)CC1)C3,912 µM
4,N#CC1(NC(=O)[C@@H]2CCCC[C@H]2C(=O)N2CCc3[nH]c4ncccc4c3C2)CC1,1510 µM
5,Cc1cccc2c3c([nH]c12)CCN(C(=O)[C@@H]1CCCC[C@H]1C(=O)NC1(C#N)CC1)C3,513 µM
6,N#CC1(NC(=O)[C@@H]2CCCC[C@H]2C(=O)N2CCc3oc4ccccc4c3C2)CC1,575 µM
7,N#CCNC(=O)[C@@H]1CCCC[C@H]1C(=O)N1CCN(c2ccccc2)CC1,631 µM
8,C[C@H](C#N)NC(=O)[C@@H]1CCCC[C@H]1C(=O)N1CCc2[nH]c3ccc(F)cc3c2C1,457 µM
9,N#CC1(NC(=O)[C@@H]2CCCC[C@H]2C(=O)N2CCc3[nH]c4ccccc4c3C2)CC1,912 µM
10,N#CC1(NC(=O)[C@@H]2CCCC[C@H]2C(=O)N2CCc3[nH]c4c(F)cccc4c3C2)CC1,479 µM
11,N#CC1(NC(=O)[C@@H]2CCCC[C@H]2C(=O)N2CCc3[nH]c4cc(F)ccc4c3C2)CC1,537 µM
12,COc1ccc2[nH]c3c(c2c1)CN(C(=O)[C@@H]1CCCC[C@H]1C(=O)NC1(C#N)CC1)CC3,813 µM
13,Cc1noc2cc(N3CCN(C(=O)[C@@H]4CCCC[C@H]4C(=O)NC4(C#N)CC4)[C@H](C)C3)ccc12,603 µM
14,CN1CCC(Oc2cc(OCCF)cc3ncnc(Nc4c(Cl)ccc5c4OCO5)c23)CC1,759 µM
15,CC1(c2c(C(=O)NC3C4CC5CC(C4)CC3C5)cnn2-c2ccc(C(=O)O)cc2)CC1 (stereo not drawn),661 µM
16,CCCSc1c(C(=O)NC2CCCCC2)cnn1C,1230 µM
17,Cc1ccc2nc(C)c(-c3ccnc(N)n3)n2c1,457 µM
18,Fc1ccc(CN2CCN(C3=Nn4c(nnc4C(F)(F)F)CC3)CC2)cc1,525 µM
19,Nc1ccccc1NC(=O)c1ccc(-c2ncc(CN3CCC3)cc2Cl)cc1,1350 µM
20,CC(C)N1CCN(Cc2cnc(-c3ccc(C(=O)Nc4ccccc4N)cc3)c(C#N)c2)CC1,1350 µM
21,C#CCN(Cc1cc2c(=O)[nH]c(C)nc2cc1C)c1ccc(C(=O)NCc2cccc([N+](=O)[O-])c2)c(F)c1,0.1 µM
22,O=C(NCc1ccc(C(=O)NO)cc1)OCc1cccnc1,1380 µM
23,Oc1ccc(-n2ccnc2)cc1,1260 µM
24,COc1ccc(-c2[nH]nc3c2C(=O)c2ccccc2-3)cc1,0.3 µM
25,COc1cc2c(Nc3ccc(Cl)cc3F)ncnc2cc1OC/C=C/CN1CCCC1,759 µM

row,Structure (SMILES),solubility thermodynamic
1,COc1cc(OC)cc(-c2cc3cnc(N)nc3nc2NC(=O)NC(C)(C)C)c1,0.4 µM
2,O=C(O)COc1ccc(OCCNC[C@H](O)COc2ccccc2)cc1,1020 µM
3,O=c1c2ccccc2[nH]n1CCc1ccccc1,550 µM
4,CC(C)(C)c1cc(=O)n(-c2ccccc2)[nH]1,708 µM
5,Cc1ccc(SCc2cc(=O)n(C)[nH]2)cc1,1510 µM
6,CNC(=O)[C@@H](NC(=O)[C@H](CC(C)C)[C@H](OCc1cc2c(=O)[nH]c(C)nc2cc1Br)C(=O)NO)C(C)(C)C,457 µM
7,Cc1nc(-c2c(C)n(Cc3c(F)cccc3F)c(=O)n(C[C@H](N)c3ccccc3)c2=O)cs1,1510 µM
8,COc1cc2ncnc(Nc3cccc(Cl)c3F)c2cc1CN(C)C1(C(N)=O)CCN(C(C)C)CC1,550 µM
9,COc1cc2c(NC(=O)Nc3ccccc3Cl)ncnc2cc1OCC1CCN(C)CC1,0.3 µM
10,C#CCN(Cc1ccc2nc(C)nc(O)c2c1)c1ccc(S(=O)(=O)c2ccccc2)cc1,0.1 µM
11,COc1cc2c(Nc3cnc(NC(=O)c4ccccc4)nc3)ncnc2cc1OC[C@@H](O)CN1CCCCC1,1510 µM
12,C[C@@H](Oc1cccc2ncnc(Nc3ccc4c(cnn4Cc4cccc(F)c4)c3)c12)C(=O)N1CCOCC1,0.3 µM
13,O=C1NCCc2c1[nH]c1ccccc21,1260 µM
14,CS(=O)(=O)N1CC2(CCN(C(=O)Nc3cnc(-c4ccccc4)cn3)CC2)c2ccccc21,0.2 µM
15,COc1cc2c(Nc3ncc(CC(=O)Nc4ccccc4)s3)ncnc2cc1OCCCN1CCOCC1,0.4 µM
16,O=C1CSc2ccccc2N1,871 µM
17,CCCNc1nc2ccccc2c(=O)[nH]1,537 µM
18,CC(=O)Nc1nc2c(s1)C(=O)NCCC2,1350 µM
19,COc1cc2ncnc(Nc3ccc(F)c(Cl)c3)c2cc1OCCCN(C)C,1290 µM
20,CC(=O)Nc1ccc(Br)cc1,832 µM
21,CN(C)C(=N)c1ccc(C(=O)N2CCN(S(=O)(=O)c3ccc4cc(Br)ccc4c3)CC2)cc1,1320 µM
22,COc1ccc(Br)c(C=O)c1O,468 µM
23,COc1cc2ncnc(Nc3ccc(Oc4ccccc4)cc3)c2cc1OC,0.3 µM
